In patent publication US9796680B2, “Glucocerebrosidase modulators and uses thereof” (Alectos Therapeutics Inc., priority 2013, dated 2017):

Target: GCase enzyme (Cerezyme, recombinant human GCase) (Homo sapiens, UniProt P04062, R534H)
Sequence (P04062 40-536 R534H limits assumed): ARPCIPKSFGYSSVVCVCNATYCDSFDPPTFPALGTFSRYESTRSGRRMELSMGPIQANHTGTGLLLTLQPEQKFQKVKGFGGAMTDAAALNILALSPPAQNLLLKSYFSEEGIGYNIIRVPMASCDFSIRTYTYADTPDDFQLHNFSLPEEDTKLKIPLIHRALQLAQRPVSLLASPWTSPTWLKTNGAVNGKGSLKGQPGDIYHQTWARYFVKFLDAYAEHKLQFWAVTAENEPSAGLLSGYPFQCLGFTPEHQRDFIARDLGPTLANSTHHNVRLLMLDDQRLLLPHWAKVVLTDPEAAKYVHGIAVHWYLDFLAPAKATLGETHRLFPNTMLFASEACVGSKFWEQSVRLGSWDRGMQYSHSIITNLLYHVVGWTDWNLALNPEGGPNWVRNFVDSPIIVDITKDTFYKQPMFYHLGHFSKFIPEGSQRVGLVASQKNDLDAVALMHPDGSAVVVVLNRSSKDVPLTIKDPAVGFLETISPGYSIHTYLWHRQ

| SMILES | IC50 | Ki |
| --- | --- | --- |
| O=C(O)[C@@H]1[C@@H](O)[C@H](O)CNC12CC2 [Example 9, (6R,7R,8S)-6,7-dihydroxy-4-azaspiro[2.5]octane-8-carboxylic acid] | 0.507 µM | – |
| O[C@H]1[C@H](O)CNC2(CC2)[C@@H]1/C=C\F [Example 17, (6R,7R,8S)-8-((Z)-2-fluorovinyl)-4-azaspiro[2.5]octane-6,7-diol] | 0.036 µM | – |
| CC1(C)NC[C@@H](O)[C@H](O)[C@H]1CO [(3R,4R,5R)-5-(hydroxymethyl)-6,6-dimethylpiperidine-3,4-diol, reference compound] | 3.44 µM | – |
| O[C@H]1[C@H](O)CNC2(CC2)[C@@H]1/C=C/F [Example 18, (6R,7R,8S)-8-((E)-2-fluorovinyl)-4-azaspiro[2.5]octane-6,7-diol] | 0.02 µM | – |
| O[C@H]1[C@H](O)CNC2(CC2)[C@@H]1C=C(F)F [Example 19, (6R,7R,8S)-8-(2,2-difluorovinyl)-4-azaspiro[2.5]octane-6,7-diol] | 0.075 µM | – |
| O[C@H]1[C@H](O)CNC2(CC2)[C@@H]1C#CC(F)F [Example 26, (6R,7R,8S)-8-(3,3-difluoroprop-1-yn-1-yl)-4-azaspiro[2.5]octane-6,7-diol] | 0.022 µM | 0.017 µM |
| CO[C@@H]1[C@@H](O)[C@H](O)CNC12CC2 [Example 7, (6R,7S,8S)-8-methoxy-4-azaspiro[2.5]octane-6,7-diol] | 0.032 µM | – |
| CNC(=O)[C@@H]1[C@@H](O)[C@H](O)CNC12CC2 [Example 10, (6R,7R,8S)-6,7-dihydroxy-N-methyl-4-azaspiro[2.5]octane-8-carboxamide] | 0.264 µM | – |
| OCC#C[C@@H]1[C@@H](O)[C@H](O)CNC12CC2 [Example 24, (6R,7R,8S)-8-(3-hydroxyprop-1-yn-1-yl)-4-azaspiro[2.5]octane-6,7-diol] | 0.017 µM | – |
| O=C(NC1CC1)[C@@H]1[C@@H](O)[C@H](O)CNC12CC2 [Example 11, (6R,7R,8S)-N-cyclopropyl-6,7-dihydroxy-4-azaspiro[2.5]octane-8-carboxamide] | 0.462 µM | – |
| O[C@H]1[C@H](O)CNC2(CC2)[C@@H]1CCF [Example 14, (6R,7R,8S)-8-(2-fluoroethyl)-4-azaspiro[2.5]octane-6,7-diol] | 0.027 µM | – |
| O[C@H]1[C@H](O)CNC2(CC2)[C@@H]1C#CCF [Example 25, (6R,7R,8S)-8-(3-fluoroprop-1-yn-1-yl)-4-azaspiro[2.5]octane-6,7-diol] | 0.016 µM | 0.015 µM |
| N#C[C@@H]1[C@@H](O)[C@H](O)CNC12CC2 [Example 8, (6R,7R,8R)-6,7-dihydroxy-4-azaspiro[2.5]octane-8-carbonitrile] | 0.075 µM | – |
| O[C@H]1[C@H](O)CNC2(CC2)[C@@H]1CF [Example 3, (6R,7R,8S)-8-(fluoromethyl)-4-azaspiro[2.5]octane-6,7-diol] | 0.0062 µM | 0.0021 µM |

The remaining compounds from weak to strong by IC50, led by results:

| IC50 | Ki | SMILES |
| --- | --- | --- |
| 0.015 µM | – | CCC[C@@H]1[C@@H](O)[C@H](O)CNC12CC2 [Example 13, (6R,7R,8S)-8-propyl-4-azaspiro[2.5]octane-6,7-diol] |
| 0.013 µM | 0.0079 µM | C#C[C@@H]1[C@@H](O)[C@H](O)CNC12CC2 [Example 20, (6R,7R,8S)-8-ethynyl-4-azaspiro[2.5]octane-6,7-diol] |
| 0.013 µM | 0.007 µM | OC[C@@H]1[C@@H](O)[C@H](O)CNC12CC2 [Example 2, (6R,7R,8R)-8-(hydroxymethyl)-4-azaspiro[2.5]octane-6,7-diol] |
| 0.011 µM | – | O[C@H]1[C@H](O)CNC2(CC2)[C@@H]1C#CCC(F)F [Example 28, (6R,7R,8S)-8-(4,4-difluorobut-1-yn-1-yl)-4-azaspiro[2.5]octane-6,7-diol] |
| 0.0097 µM | 0.0067 µM | CC#C[C@@H]1[C@@H](O)[C@H](O)CNC12CC2 [Example 21, (6R,7R,8S)-8-(prop-1-yn-1-yl)-4-azaspiro[2.5]octane-6,7-diol] |
| 0.0075 µM | – | COC[C@@H]1[C@@H](O)[C@H](O)CNC12CC2 [Example 6, (6R,7R,8R)-8-(methoxymethyl)-4-azaspiro[2.5]octane-6,7-diol] |
| 0.0074 µM | – | O[C@H]1[C@H](O)CNC2(CC2)[C@@H]1CCl [Example 5, (6R,7R,8S)-8-(chloromethyl)-4-azaspiro[2.5]octane-6,7-diol] |
| 0.0068 µM | 0.0076 µM | C=C[C@@H]1[C@@H](O)[C@H](O)CNC12CC2 [Example 16, (6R,7R,8S)-8-vinyl-4-azaspiro[2.5]octane-6,7-diol] |
| 0.0067 µM | – | CCCC#C[C@@H]1[C@@H](O)[C@H](O)CNC12CC2 [Example 23, (6R,7R,8S)-8-(pent-1-yn-1-yl)-4-azaspiro[2.5]octane-6,7-diol] |
| 0.0065 µM | 0.008 µM | O[C@H]1[C@H](O)CNC2(CC2)[C@@H]1C(F)F [Example 4, (6R,7R,8S)-8-(difluoromethyl)-4-azaspiro[2.5]octane-6,7-diol] |
| 0.0063 µM | – | CC[C@@H]1[C@@H](O)[C@H](O)CNC12CC2 [Example 12, (6R,7R,8S)-8-ethyl-4-azaspiro[2.5]octane-6,7-diol] |
| 0.0037 µM | 0.0026 µM | C[C@@H]1[C@@H](O)[C@H](O)CNC12CC2 [Example 1, (6R,7R,8S)-8-methyl-4-azaspiro[2.5]octane-6,7-diol] |
| 0.0025 µM | – | O[C@H]1[C@H](O)CNC2(CC2)[C@@H]1C#CCCF [Example 27, (6R,7R,8S)-8-(4-fluorobut-1-yn-1-yl)-4-azaspiro[2.5]octane-6,7-diol] |
| 0.0024 µM | – | CCC#C[C@@H]1[C@@H](O)[C@H](O)CNC12CC2 [Example 22, (6R,7R,8S)-8-(but-1-yn-1-yl)-4-azaspiro[2.5]octane-6,7-diol] |
